Measurements taken from the supplement of paper PMC10307832.

How the values were obtained:
Assay in all cases: relative viability (nuclei count vs DMSO), 5 days (fraction); higher = more cells survive
[1] = compound: C1/C(=C\C2=CC=CS2)/C(=O)/C(=C/C3=CC=CS3)/C1 + CC(=O)c1c(C)c2cnc(Nc3ccc(N4CCNCC4)cn3)nc2n(C2CCCC2)c1=O [Palbociclib] (partner 0.5 µM)
Procedure, shortened: (§1)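 Nuclei were stained with Hoechst during a one-step fixation (final 0.05% Triton X-100, 1% formaldehyde, 1 ug/ml Hoechst) carried out 5 days after dosing, then counted on 4× images. The cells, lung cancer lines in 1536-well plates, had been dosed by pin tool the day after seeding with one drug alone or a fixed anchor-drug dose plus five library-drug doses (not always all listed) in √10 steps. Relative viability is the nuclei count in treated wells divided by that in vehicle wells, and each value is the median of duplicate plates.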

Lestaurtinib + OSI-027 = compound: C[C@]12O[C@H](C[C@]1(O)CO)n1c3ccccc3c3c4c(c5c6ccccc6n2c5c31)CNC4=O [Lestaurtinib] + COc1cccc2cc(-c3nc([C@H]4CC[C@H](C(=O)O)CC4)n4ncnc(N)c34)[nH]c12 [OSI-027] (partner 0.5 µM)
Procedure, shortened: as §1

[2] = compound: C1/C(=C\C2=CC=CS2)/C(=O)/C(=C/C3=CC=CS3)/C1 + CC(C)C[C@H](NC(=O)[C@H](Cc1ccccc1)NC(=O)c1cnccn1)B(O)O [Bortezomib] (partner 0.002 µM)
Procedure, shortened: as §1

TPCA-1 + Linsitinib = compound: C1=CC(=CC=C1C2=CC(=C(S2)NC(=O)N)C(=O)N)F [TPCA-1] + C[C@]1(O)C[C@@H](c2nc(-c3ccc4ccc(-c5ccccc5)nc4c3)c3c(N)nccn32)C1 [Linsitinib] (partner 1 µM)
Procedure, shortened: as §1

Cell Line	relative viability ([1]; first compound 0.2 µM)	relative viability ([1]; first compound 0.6325 µM)	relative viability ([1]; first compound 2 µM)	relative viability ([1]; first compound 6.325 µM)	relative viability ([1]; first compound 20 µM)	relative viability (Lestaurtinib + OSI-027; first compound 0.005 µM)	relative viability (Lestaurtinib + OSI-027; first compound 0.01581 µM)	relative viability (Lestaurtinib + OSI-027; first compound 0.1581 µM)	relative viability (Lestaurtinib + OSI-027; first compound 0.5 µM)	relative viability ([2]; first compound 0.2 µM)	relative viability ([2]; first compound 0.6325 µM)	relative viability ([2]; first compound 2 µM)	relative viability ([2]; first compound 6.325 µM)	relative viability ([2]; first compound 20 µM)	relative viability (TPCA-1 + Linsitinib; first compound 0.04 µM)	relative viability (TPCA-1 + Linsitinib; first compound 0.1265 µM)	relative viability (TPCA-1 + Linsitinib; first compound 0.4 µM)	relative viability (TPCA-1 + Linsitinib; first compound 1.265 µM)	relative viability (TPCA-1 + Linsitinib; first compound 4 µM)	relative viability (Lestaurtinib + OSI-027; first compound 0.05 µM)
201T	0.348	0.37	0.349	0.353	0.348	0.766	0.982	0.63	0.447	1.17	1.08	1.13	1.04	1.08	1.03	0.982	1.09	1.09	0.835	
A549															0.627	0.567	0.638	0.469	0.314	
A-427	0.546	0.552	0.519	0.481	0.5	0.473	0.402	0.233	0.146	1.07	1.08	0.961	0.993	0.981	1.13	1.06	1.17	1.09	1.12	0.257
ABC-1	0.707	0.614	0.886	0.64	0.513	0.505	0.65	0.456	0.175	0.33	0.349	0.336	0.265	0.253	0.936	0.714	0.662	0.579	0.524	0.342
BEN	0.504	0.531	0.511	0.411	0.518	0.463	0.313	0.298	0.196	0.719	1.04	1.01	0.68	0.719	0.973	0.728	1	0.877	0.692	0.3
CAL-12T	0.531	0.654	0.555	0.49	0.489	0.699	0.698	0.36	0.278	1.1	1.09	1.18	0.976	1.04	0.868	0.754	0.73	0.763	0.411	0.515
COR-L23	0.333	0.283	0.338	0.294	0.297	0.612	0.933	0.395	0.343	1.12	0.983	0.978	0.946	1.01	1.01	0.771	0.975	0.821	0.565	0.281
COR-L 105	0.379	0.405	0.443	0.43	0.401	0.616	0.696	0.441	0.23	1.02	0.73	1.03	0.678	0.662	0.959	1.03	0.801	0.862	0.781	0.565
Calu-6										1.02	1.02	1	0.837	1.06	1.15	0.941	0.962	0.847	0.68	
ChaGo-K-1	0.956	0.954	0.84	0.719	0.479	0.608	0.626	0.376	0.373	0.998	0.934	0.967	0.559	0.517						0.5
EBC-1										0.524	0.558	0.551	0.441	0.605	1.06	0.825	0.815	0.844	0.814	
EKVX	0.383	0.388	0.367		0.409	0.773	0.697	0.717	0.602	1.11	1.02	1.12	0.933	1.1	1.1	0.868	1.08	0.69	0.846	0.79
EMC-BAC-2	0.548	0.549	0.526	0.472	0.518	0.38	0.365	0.308	0.263	1.16	1.08	1.19	0.967	1.02	0.848	0.739	0.822	0.837	0.66	0.363
EPLC-272H	0.326	0.327	0.356	0.213	0.345	0.288	0.278	0.223	0.166	0.957	0.903	0.93	1.01	0.839	1.3	1.09	1.33	1.03	1.01	0.222
H3255	0.325	0.33	0.324	0.308	0.297	0.63	0.515	0.36	0.276	0.778	0.82	0.71	0.84	0.618	1.06	0.826	0.95	0.866	0.708	0.56
HARA	0.278	0.238	0.337	0.196	0.32	0.629	0.469	0.278	0.104	1.23	1.1	1.08	0.89	1.07	0.916	0.856	1.05	0.924	0.804	0.324
HCC-15	0.721	0.734	0.824	0.682	0.73	0.717	0.757	0.464	0.185	1.06	1.03	1.03	0.884	1.03	0.951	0.886	0.82	0.895	0.802	0.658
HCC-44	0.984	1	0.926	0.862	1.04	0.548	0.654	0.659	0.705	0.911	0.851	0.844	0.801	0.923	0.608	0.63	0.705	0.656	0.666	0.462
HCC-78	0.486	0.457	0.534		0.451	0.34	0.417	0.381	0.29	0.623	0.464	0.534	0.463	0.301	0.555	0.429	0.506	0.413	0.399	0.323
HCC-366	0.413	0.388	0.454	0.358	0.43	1.03	1.03	0.353	0.198	1.03	1.09	1.07	0.893	1.07	0.72	0.568	0.807	0.458	0.427	0.827
HCC-827	0.487	0.481	0.522	0.463	0.525	0.781	0.727	0.626	0.659	1.1	1.07	0.993	0.84	1.05	0.934	0.889	0.935	0.932	0.806	0.459

Cell Line	relative viability ([1]; first compound 0.2 µM)	relative viability ([1]; first compound 0.6325 µM)	relative viability ([1]; first compound 2 µM)	relative viability ([1]; first compound 6.325 µM)	relative viability ([1]; first compound 20 µM)	relative viability (Lestaurtinib + OSI-027; first compound 0.005 µM)	relative viability (Lestaurtinib + OSI-027; first compound 0.01581 µM)	relative viability (Lestaurtinib + OSI-027; first compound 0.1581 µM)	relative viability (Lestaurtinib + OSI-027; first compound 0.5 µM)	relative viability ([2]; first compound 0.2 µM)	relative viability ([2]; first compound 0.6325 µM)	relative viability ([2]; first compound 2 µM)	relative viability ([2]; first compound 6.325 µM)	relative viability ([2]; first compound 20 µM)	relative viability (TPCA-1 + Linsitinib; first compound 0.04 µM)	relative viability (TPCA-1 + Linsitinib; first compound 0.1265 µM)	relative viability (TPCA-1 + Linsitinib; first compound 0.4 µM)	relative viability (TPCA-1 + Linsitinib; first compound 1.265 µM)	relative viability (TPCA-1 + Linsitinib; first compound 4 µM)	relative viability (Lestaurtinib + OSI-027; first compound 0.05 µM)
HOP-62	0.486	0.499	0.465	0.41	0.473	0.936	0.958	0.643	0.415	0.619	0.765	0.94	0.979	0.634	0.96	0.676	0.921	1.12	0.973	0.498
IA-LM										0.809	0.909	0.886	0.753	0.665	0.75	0.411	0.47	0.259	0.378	
LC-2-ad	0.526	0.483	0.488	0.333	0.481	0.892	0.783	0.483	0.304	1.03	1.05	1.02	0.871	1.02	0.92	0.71	0.833	0.807	0.331	0.506
LK-2	0.639		0.706	0.787	0.732	0.158	0.224	0.185	0.173						0.349	0.332	0.507	0.52	0.196	0.176
NCI-H358	0.187	0.135	0.152	0.143	0.125	0.658	0.629	0.232	0.0986						0.902	0.557	0.691	0.487	0.339	0.285
NCI-H522	0.855	1.33	1.03	0.735	0.917	0.816	0.791	0.709	0.572											0.679
NCI-H596						0.743	0.818	0.717	0.65	0.868	1.07	1.19	1.08		1.14	1.05	1.13	1.11	1.14	0.647
NCI-H1299										1.07	1.05	0.96	0.898	1.03	1.13	0.904	0.942	0.777	1.01	
NCI-H1395	0.616	0.683	0.612	0.566	0.599	0.546	0.655	0.482	0.374						1.55	0.954	1.07	0.959	0.884	0.5
NCI-H1563						0.724	0.755	0.777	0.734	1.01	0.912	1.11	0.86	0.859	1.2	1.23	1.17	1.12	1.16	0.757
NCI-H1623						0.4	0.412	0.399	0.398											0.428
NCI-H1648	0.271	0.497	0.271	0.262	0.288	0.233	0.271	0.246	0.261											0.285
NCI-H1650	0.312	0.325	0.351	0.373	0.333	0.642	0.829	0.652	0.357	0.221	0.231	0.327	0.202	0.186						0.594
NCI-H1703										0.338	0.432	0.28	0.25	0.336	1.01	0.627	0.947	0.546	0.308	
NCI-H1793	0.343	0.368	0.351	0.306	0.315	0.291	0.257	0.274	0.183						1.05	0.674	0.934	0.683	0.727	0.242
NCI-H1944	0.349	0.371	0.349		0.317	0.483	0.406	0.31	0.292						1.24	1.13	1.2	1.13	0.987	0.322
NCI-H2170	0.386	0.382	0.376	0.248	0.393	0.726	0.523	0.561	0.471											0.45
NCI-H2342	0.511	0.568	0.531	0.482	0.516	0.571	0.672	0.648	0.549											0.547
SK-MES-1	0.347	0.321	0.329	0.311	0.292	0.536	0.486	0.342	0.151						1.17	0.985	1.01	0.859	0.634	0.407
SW 900	0.578	0.524	0.616	0.451	0.653	0.561	0.702	0.522	0.527											0.623
